Laboratory results as given in ChEMBL document CHEMBL1201862, “PubChem BioAssay data set” (2004).
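96-well plates; 48 h exposure; 5 concentrations. Endpoints by linear interpolation between flanking doses. Not reached: highest tested concentration assigned. GI50 = concentration required for 50% inhibition of growth.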 Activity calls are given as the source filed them. No stated cut-off is given here; in the data, active = GI50 up to about 1.1 µM and inactive = higher.

Tests used:
Test in all cases: inhibition of tumour cell growth, NCI panel, 48 h
786-0 = system: 786-0
BT-549 = system: BT-549
DU-145 = system: DU-145
EKVX = system: EKVX
HT-29 = system: HT-29
M14 = system: M14
MDA-N = system: MDA-N
NCI-H226 = system: NCI-H226
NCI-H23 = system: NCI-H23
NCI-H460 = system: NCI-H460
NCI-H522 = system: NCI-H522
OVCAR-4 = system: OVCAR-4
OVCAR-5 = system: OVCAR-5
OVCAR-8 = system: OVCAR-8
SK-MEL-2 = system: SK-MEL-2
SNB-19 = system: SNB-19
T47D = system: T47D
HCC 2998 = system: HCC 2998
HOP-62 = system: HOP-62

Measured: GI50

CCCCCCCCCCCCCCCCOC[C@@H](COC(c1ccccc1)(c1ccccc1)c1ccccc1)O[PH](=S)OC (stereo not given in full)
inactive: 786-0 6.49 µM | BT-549 3.35 µM | DU-145 17 µM | EKVX 13.6 µM | HT-29 16.8 µM | M14 3.3 µM | MDA-N 2.24 µM | NCI-H226 19.1 µM | NCI-H23 10.9 µM | NCI-H460 1.6 µM | NCI-H522 10.2 µM | OVCAR-4 9.35 µM | OVCAR-5 10.8 µM | OVCAR-8 12.1 µM | SK-MEL-2 11.1 µM | SNB-19 4.79 µM | T47D 16.2 µM

CCCCCCCCC[C@@H]1C[C@@H]2CCC3C(C(=O)OCCCCNC(=O)OCc4ccccc4)=C(C)N=C(N1)N32 (stereo not given in full)
inactive: 786-0 1.76 µM | BT-549 3.67 µM | DU-145 4.76 µM | EKVX 2.72 µM | HCC 2998 3.06 µM | HOP-62 3.75 µM | HT-29 3.29 µM | M14 2.55 µM | NCI-H226 3.58 µM | NCI-H23 2.56 µM | NCI-H460 3.22 µM | NCI-H522 2.52 µM | OVCAR-4 3.97 µM | OVCAR-5 5.78 µM | OVCAR-8 2.58 µM | SK-MEL-2 1.92 µM | SNB-19 6.18 µM | T47D 2.57 µM

N=C(N)N/N=C/c1c(-c2cccc([N+](=O)[O-])c2)nc2n1CCS2
inactive: 786-0 29.3 µM | BT-549 15.9 µM | DU-145 19 µM | EKVX 25.4 µM | HCC 2998 19.4 µM | HOP-62 22.4 µM | HT-29 15.7 µM | M14 24.4 µM | NCI-H226 20.3 µM | NCI-H23 25.5 µM | NCI-H460 22.8 µM | NCI-H522 16.3 µM | OVCAR-4 13.9 µM | OVCAR-5 35 µM | OVCAR-8 16.7 µM | SK-MEL-2 17.2 µM | SNB-19 13.8 µM | T47D 8.02 µM

O=c1[nH]c(=O)c2c([nH]1)[nH]c1ccccc12
inactive: 786-0 > 100 µM | BT-549 > 100 µM | DU-145 > 100 µM | EKVX > 100 µM | HOP-62 > 100 µM | HT-29 > 100 µM | M14 > 100 µM | MDA-N > 100 µM | NCI-H226 > 100 µM | NCI-H23 > 100 µM | NCI-H522 > 100 µM | OVCAR-4 29.3 µM | OVCAR-5 > 100 µM | OVCAR-8 > 100 µM | SK-MEL-2 > 100 µM | SNB-19 > 100 µM | T47D > 100 µM

Cc1cc(Cc2c(F)c(F)c(Cc3cc(C)no3)c(F)c2F)on1
inactive: 786-0 38.8 µM | BT-549 > 100 µM | DU-145 > 100 µM | EKVX > 100 µM | HOP-62 25.4 µM | HT-29 > 100 µM | M14 > 100 µM | MDA-N > 100 µM | NCI-H226 > 100 µM | NCI-H23 65.8 µM | NCI-H522 > 100 µM | OVCAR-4 > 100 µM | OVCAR-5 > 100 µM | OVCAR-8 83.9 µM | SK-MEL-2 32.7 µM | SNB-19 36.7 µM | T47D > 100 µM

C(/C=N/N=C1NCCN1)=N\N=C1NCCN1
inactive: 786-0 > 100 µM | BT-549 > 100 µM | EKVX > 100 µM | HCC 2998 > 100 µM | HOP-62 > 100 µM | HT-29 > 100 µM | M14 > 100 µM | MDA-N > 100 µM | NCI-H226 > 100 µM | NCI-H23 > 100 µM | NCI-H460 > 100 µM | NCI-H522 72.3 µM | OVCAR-4 > 100 µM | OVCAR-5 > 100 µM | OVCAR-8 > 100 µM | SK-MEL-2 > 100 µM | SNB-19 > 100 µM | T47D > 100 µM
